Source: patent US20090197853A1, “METHODS AND COMPOSITIONS OF TREATING CANCER” (priority 2005, published 2009)

How the values were obtained:
[1] = test system: Ramos cells; assay: Mitochondrial membrane potential (JC-1), Ramos; assay type: cell-based; conditions: single agent alone
Method: Mitchondrial membrane potential. Loss of the mitochondrial membrane potential (ΔΨm) of cells was measured by the use of JC-1 (Molecular Probes, Inc., Eugene, Oreg.). Cells undergoing early apoptosis lose fluorescence in the 585 nm channel and gain it in the 530 nm channel. Briefly, cells cultured as described above were washed twice with complete medium, re-suspended in 0.5 mL JC-1 solution (10 μg/mL in complete medium), and incubated at 37° C. for 15 minutes. Cells were isolated by centrifugation, washed once and then re-suspended in 0.5 mL solution of 0.5% BSA in PBS and assayed immediately on the flow cytometer.

[2] = test system: A549 cells; assay: Intracellular free zinc (FluoZin-3 fluorescence), A549; assay type: cell-based, human; conditions: for Increase in cellular FluoZin-3 fluorescence: A549, MGd in the absence of actinomycin D
Method: Methods: The concentration of intracellular free zinc was assessed using the ion-specific fluorescent probe, FluoZin-3-AM™ (FluoZin-3, Molecular Probes, Inc.). […] Following treatment, cells were isolated by centrifugation. Cell pellets were washed and re-suspended in a solution of 0.5% BSA in PBS.

[3] = test system: Ramos cells; assay: Annexin-V apoptosis, Ramos; assay type: cell-based; conditions: single agent alone
Method: Methods: Annexin V/PI. Cells from exponential phase cultures were treated with MGd, zinc, or control (5% mannitol) solution for 24 or 48 hours. After incubation, cells were harvested and washed twice with a solution of 0.5% bovine serum albumin (BSA) in Hanks buffered saline (HBSS). An aliquot of cells (1×10^6) was added to 500 μL diluted binding buffer from the ANNEXIN-V PI Kit (BD Biosciences, San Jose, Calif.). Cells were pelleted, re-suspended in 100 μL of diluted binding buffer, and treated with the ANNEXIN-V PI reagent as per the manufacturer's protocol.

[4] = test system: acute promyelocytic leukemia line (HL60); conditions: 50 to 100 μM zinc
Method: Cellular Proliferation—The proliferation of exponential phase cultures was assessed by colorimetric assay. In brief, 2×10^5 suspension cells per well were seeded on 96-well V-bottom microtiter plates. Stock solutions of control vehicle, MGd or Zn(OAc)2 in medium were added and plates were incubated at 37° C. under a 5% CO2/95% air atmosphere. After 24 hours, medium was replaced with fresh medium. After 2 additional days, medium was exchanged with fresh medium (150 μL/well) supplemented with 3-(4,5-dimethylthiazol-2-yl)-2,5-diphenyltetrazolium bromide (MTT, 0.5 mg/mL, Sigma Biochemical, St. Louis, Mo.). Plates were incubated at 37° C. and viable cells measured.

[5] = HPLC analysis of MGd stability in medium from plateau phase cultures; assay type: physicochemical; conditions: after 24 hours
Method: Results: Studies were performed to determine whether the metallothionein transcript up-regulation observed in the microarray analysis could be a consequence of free gadolinium(III) cation, released from MGd into the cell culture medium. […] Since the microarray analysis indicated strong transcript up-regulation after 4 hours of treatment with drug, this time interval was selected for further investigation of RNA transcript levels. RNA was harvested from plateau phase cultures treated with control vehicle, 50 μM MGd, or 5 μM Gd(OAc)3 for 4 hours. […] Thus, even assuming a 10% loss of drug over the initial 4 hour incubation period, the resulting release of Gd(III) ion into the culture medium would be insufficient to induce the observed metallothionein and ZnT1 transcript levels.

[6] = test system: Ramos cells; assay: Gene expression profiling on Human Genome U133 Plus 2.0 Arrays, Ramos cultures; assay type: cell-based; conditions: 4 hours
Method: Methods: Gene Expression Profiling—MGd (10 μM), Zn(OAc)2 (25 or 50 μM, the combinations, or control (5% mannitol) solution were added to Ramos cultures. Each treatment was performed in triplicate. After 4 hours of incubation, all cultures were washed twice with 0.5% BSA in HBSS and total RNA was isolated and subjected to analysis on Human Genome U133 Plus 2.0 Arrays (Affymetrix, Santa Clara, Calif.). Microarray Suite version 5.0 software (Affymetrix) was used to generate raw gene expression scores and normalize the relative hybridization signal from each experiment. All gene expression scores were set to a minimum value of fifty in order to minimize noise associated with less robust measurements of rare transcripts. Both the parametric Student's t-test and the permutation-based significance analysis of microarrays (SAM) were used to determine genes differentially expressed in treatment versus control groups.

[7] = test system: A549 cells
[8] = test system: metallothionein gene family members and ZnT1; assay: Northern blot analysis, Ramos cultures; assay type: cell-based; conditions: 6 hours
Method: (§1) Methods: Northern Blot Analysis—Plateau phase cultures of A549 cells were prepared as described above, except that T-25 flasks were used, and the number of cells initially plated scaled accordingly. Cultures were treated with 50 μM MGd, 5 μM Gd(OAc)3 or 5% mannitol for 4 hours, whereupon cultures were washed twice with PBS and RNA harvested as above. Alternatively, 7-day plateau phase A549 or PC3 cultures were treated with 50 μM MGd, 50-100 μM Zn(OAc)2, 50 μM CdCl2 or 5% mannitol for 24 hours (A549) or 4 hours (PC3) prior to washing and RNA analysis. Exponential phase Ramos cultures were treated for 6 hours. Northern blots were conducted and analyzed. Radio labeled metallothionein probe, designed to bind to a 113-bp region of 3′-UTR sequences from multiple metallothionein gene family members, was generated using 5′-[…]-3′ (forward) and 5′-[…]-3′ (reverse) PCR primers and the NEBlot kit (New England Biolabs, Inc.). Radio labeled ZnT1 probe was generated in a similar fashion using 5′-[…]-3′ (forward) and 5′-[…]-3′ (reverse) primers.

[9] = test system: metallothionein gene family members and ZnT1; assay: Northern blot analysis, PC3 cultures; assay type: cell-based; conditions: PC3, 4 hours
Method: as §1

[10] = test system: A549 human lung cancer cells; assay: Gene expression profiling on Affymetrix U133A microarrays, plateau phase A549 cultures; assay type: cell-based; conditions: 50 μM MGd
Method: Methods: A549 human lung cancer cells (6.5×10^5 cells per T-162 flask in 45 mL complete RPMI 1640 medium) were seeded 10 days prior to treatment of non-cycling plateau phase cultures with MGd. At 4, 12, or 24 hours prior to RNA isolation, MGd (50 μM final concentration) or control (5% mannitol) solution was added to the cultures. Each time course experiment was performed in triplicate. After incubation, all cultures were washed once with PBS and total RNA was subjected to analysis on Affymetrix U133A microarrays, designed to interrogate the relative abundance of over 15,000 human genes.
We used Microarray Suite version 5.0 software (Affymetrix) to generate raw gene expression scores and normalized the relative hybridization signal from each experiment. All gene expression scores were set to a minimum value of one hundred in order to minimize noise associated with less robust measurements of rare transcripts. The permutation-based significance analysis of microarrays (SAM) was used to determine genes differentially expressed in response to MGd treatment compared to the control 5% mannitol-treated cultures (0.125% final) at each time point. We report all genes at least 2-fold differentially expressed with a less than a 1% False Discovery Rate (FDR) in response to MGd treatment (FIG. 10).

SMILES | JC-1 fluorescence [1] | Cell-associated fluorescence of FluoZin-3 at 530 nm ([2]; A549, 4 hours, Zn(OAc)2 50-100 μM) | Annexin-V signal [3] | Proliferation [4] | Apparent loss of drug in medium (HPLC) [5] [%] | MTF-1 regulated genes incl. metallothionein and zinc transporter family transcripts [6] | Effect of MGd on the cytotoxicity of Zn(OAc)2 [7] | Expression of metallothionein family members and ZnT1 [8] | Increase in cellular FluoZin-3 fluorescence ([2]; serum medium) [fold] | Increase in cellular FluoZin-3 fluorescence ([2]; serum-free medium) [fold] | Expression of metallothionein family members and ZnT1 [9] | hbc647 transcript (likely 3′-UTR of ZnT1) ([10]; all three time points) | Metallothionein isoform transcripts (microarray) ([10]; all time points)
CC(=O)[O-].CC(=O)[O-].[Zn+2] [Zn(OAc)2, Zinc acetate] | No significant change | significantly increased | No significant change | but not in an acute promyelocytic leukemia line (HL60) | – | – | – | – | – | – | – | – | –
CC(=O)[O-].CC(=O)[O-].CCc1c(CC)c2cc3nc(cnc4cc(OCCOCCOCCOC)c(OCCOCCOCCOC)cc4ncc4nc(cc1[n-]2)C(CCCO)=C4C)C(C)=C3CCCO.O.[Gd+3] [MGd, Motexafin gadolinium] | No significant change | – | No significant change | – | 4 | up-regulation of MTF-1 regulated genes | potentiated | increased | 1.2 | 1.1 | increased | up-regulated | up-regulation
